As a reminder, the IC50 is the midpoint of a concentration-inhibition curve.

A value given as a limit tells only on which side of the number the result lay.

One assay relates to CA6. The assay can be described thus: organism not typed. It counts as cell-based. To be noted: RD, 96 h.
Assay [1] relates to EV71 virus.
Assay [2] has as its system EV-D68.
In a further assay the target is mTORC2 (Homo sapiens, UniProt P42345). The note with it: RD cells, 20 μM, 2 hours, insulin medium, Western blot. A general note: In western blotting, separated proteins are transferred to a membrane and probed.
The subject of assay [3] is Poliovirus I/II/III (mixed vaccine strains of three subtypes). The assay can be described thus: microbe, parasite or virus in culture. The note with it: Enterovirus C, RD, 96 h.
A further assay deals with CA16. Nature of the assay: organism not typed. It counts as cell-based. The note with it: RD, 96 h.
A further assay deals with mTORC1 (Homo sapiens, UniProt P42345). To be noted: RD cells, 20 μM, 2 hours, insulin medium, Western blot.
For the next assay, the target named is mTOR kinase (Homo sapiens, UniProt P42345). The assay can be described thus: Inhibitory activity on mTOR kinase (TR-FRET, GFP-4E-BP1 substrate). It counts as biochemical. The note with it: fit parameter of concentration-mTOR kinase inhibition curve. Background: In TR-FRET formats the signal depends on donor and acceptor labels being close together.
Assay [4] has as its system CB3 virus. The assay can be described thus: organism not typed. The note with it: Vero, 120 h.
For assay [5], the system named is EV-D68. The assay can be described thus: microbe, parasite or virus in culture. To be noted: Enterovirus D, EVD68, RD, 96 h.
The test system of the next assay is CA10. The assay can be described thus: organism not typed. In kind it is cell-based. To be noted: RD, 96 h.
The test system of assay [6] is CB3 virus.
The subject of assay [7] is Poliovirus I/II/III (mixed vaccine strains of three subtypes).
In assay [8] the test system is EV71 virus. The assay can be described thus: microbe, parasite or virus in culture. To be noted: Enterovirus A, EV71, RD, 96 h.

For `Nc1ccc(-c2ccc3ncc4ccc(=O)n(-c5cccc(C(F)(F)F)c5)c4c3c2)cn1` [compound of Formula I, 9-(6-amino-pyridin-3-yl)-1-(3-trifluoromethyl-phenyl)-1H-benzo[h][1,6]naphthyridin-one], the 50% inhibitory concentration (IC50) in the assay with CA6 was greater than 10000 nM; in assay [3] it was 52 nM; in the assay with CA16, greater than 10000 nM; in the assay with CB3 virus [4] it was 5 nM; with EV-D68 [5] it was 5 nM; in the assay on CA10, greater than 10000 nM. The compound further registered an IC50 with EV71 virus [8] of 10 nM. The “inhibitory effect on enterovirus (in words)” value (in the assay on EV71 virus [1]; in the assay on EV-D68 [2]; with CB3 virus [6]; in [7]) was “significant inhibitory effect” throughout. On mTORC2, the “phosphorylation level of Akt (Ser473)” value is “significantly down-regulate”. At mTORC1, the “phosphorylation expression levels of p70 (Thr389 of p70S6K1)” value was “significantly reduced”. Moreover, at mTOR kinase, the Bottom is 3.74. Also, the HillSlope on mTOR kinase is 1.14. This compound registered a Top on mTOR kinase of 103.60.

The values above are taken from patent US20220204501A1, “ENTEROVIRUS INHIBITOR” (ACADEMY OF MILITARY MEDICAL SCIENCES, priority 2019, published 2022).
